Source: PubChem BioAssay (NCI)
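Following 48 hours of exposure in 96-well plates, responses at five concentrations were used to interpolate endpoints linearly. GI50 marks 50% less growth. TGI marks complete inhibition of growth.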

Experiments:
Assay in all cases: NCI tumour cell line growth inhibition, 48 h
[1] = system: HL-60(TB) leukemia
[2] = system: BT-549 breast
[3] = system: U251 CNS
[4] = system: SK-MEL-28 melanoma
[5] = system: SF-295 CNS
[6] = system: T-47D breast
[7] = system: NCI-H460 lung
[8] = system: COLO 205 colon
[9] = system: NCI-H522 lung
[10] = system: LOX IMVI melanoma
[11] = system: HCT-15 colon
[12] = system: A498 renal
[13] = system: UO-31 renal
[14] = system: 786-0 renal
[15] = system: SN12C renal
[16] = system: ACHN renal
[17] = system: CCRF-CEM leukemia
[18] = system: MOLT-4 leukemia
[19] = system: UACC-257 melanoma
[20] = system: SNB-19 CNS
[21] = system: CAKI-1 renal
[22] = system: UACC-62 melanoma
[23] = system: NCI-H226 lung
[24] = system: M14 melanoma
[25] = system: SK-OV-3 ovarian
[26] = system: KM12 colon
[27] = system: PC-3 prostate
[28] = system: IGROV1 ovarian
[29] = system: SR leukemia
[30] = system: RPMI-8226 leukemia
[31] = system: HCC-2998 colon
[32] = system: SF-539 CNS
[33] = system: MDA-MB-231 breast
[34] = system: HOP-62 NSCLC
[35] = system: TK-10 renal
[36] = system: A549 NSCLC
[37] = system: HS 578T breast
[38] = system: NCI-H23 lung
[39] = system: OVCAR-4 ovarian
[40] = system: HCT-116 colon
[41] = system: HT29 colon
[42] = system: MDA-MB-435
[43] = system: OVCAR-5 ovarian
[44] = system: SNB-75 CNS
[45] = system: HOP-92 NSCLC
[46] = system: MCF7 breast
[47] = system: K-562 leukemia
[48] = system: RXF 393 renal
[49] = system: DU-145 prostate
[50] = system: SK-MEL-2 melanoma
[51] = system: OVCAR-3 ovarian
[52] = system: SW-620 colon
[53] = system: SK-MEL-5 melanoma
[54] = system: MALME-3M melanoma
[55] = system: NCI/ADR-RES ovarian
[56] = system: SF-268 CNS
[57] = system: OVCAR-8 ovarian

Which GI50 [1] does the source give for `CCCCN(Cc1ccc(F)cc1)c1ccc(CO)c(Cl)c1` here?
The GI50 was 14.1 µM.

What about the TGI [1] of the same molecule?
Its TGI is 34 µM.

What about the GI50 [2] of the same molecule?
The GI50 was 19.1 µM.

And the TGI [2]?
The TGI was 34.6 µM.

What about the GI50 [3] of the same molecule?
The GI50 was 4.57 µM.

What about the TGI [3] of the same molecule?
The TGI was 18.9 µM.

And the GI50 [4]?
The GI50 was 14.8 µM.

And the TGI [4]?
The TGI was 28.4 µM.

What about the GI50 [5] of the same molecule?
The GI50 was 3.96 µM.

And the TGI [5]?
Its TGI is 17.2 µM.

And the GI50 [6]?
Its GI50 is 1.27 µM.

What about the TGI [6] of the same molecule?
Its TGI is 10.2 µM.

What about the GI50 [7] of the same molecule?
Its GI50 is 2.46 µM.

What about the TGI [7] of the same molecule?
The TGI was 13.4 µM.

And the GI50 [8]?
Its GI50 is 14 µM.

What about the TGI [8] of the same molecule?
Its TGI is 27.2 µM.

What about the GI50 [9] of the same molecule?
The GI50 was 15 µM.

And the TGI [9]?
The TGI was 30.1 µM.

What about the GI50 [10] of the same molecule?
Its GI50 is 16.3 µM.

What about the TGI [10] of the same molecule?
Its TGI is 31.5 µM.

And the GI50 [11]?
Its GI50 is 13.4 µM.

What about the TGI [11] of the same molecule?
Its TGI is 28.5 µM.

What about the GI50 [12] of the same molecule?
The GI50 was 0.0543 µM.

And the TGI [12]?
The TGI was 0.208 µM.

What about the GI50 [13] of the same molecule?
The GI50 was 10.6 µM.

And the TGI [13]?
The TGI was 23.6 µM.

What about the GI50 [14] of the same molecule?
The GI50 was 12.2 µM.

What about the TGI [14] of the same molecule?
The TGI was 25.6 µM.

And the GI50 [15]?
Its GI50 is 12.5 µM.

What about the TGI [15] of the same molecule?
Its TGI is 25.3 µM.

What about the GI50 [16] of the same molecule?
The GI50 was 15.4 µM.

What about the TGI [16] of the same molecule?
Its TGI is 29.7 µM.

And the GI50 [17]?
Its GI50 is 15.8 µM.

What about the TGI [17] of the same molecule?
Its TGI is 38.1 µM.

What about the GI50 [18] of the same molecule?
The GI50 was 17.8 µM.

And the TGI [18]?
Its TGI is 43.1 µM.

And the GI50 [19]?
The GI50 was 0.862 µM.

What about the TGI [19] of the same molecule?
Its TGI is 3.75 µM.

And the GI50 [20]?
The GI50 was 14.3 µM.

What about the TGI [20] of the same molecule?
Its TGI is 27.7 µM.

And the GI50 [21]?
The GI50 was 11.7 µM.

What about the TGI [21] of the same molecule?
The TGI was 25.5 µM.

And the GI50 [22]?
The GI50 was 0.903 µM.

What about the TGI [22] of the same molecule?
Its TGI is 4.84 µM.

What about the GI50 [23] of the same molecule?
Its GI50 is 0.146 µM.

What about the TGI [23] of the same molecule?
Its TGI is 0.318 µM.

What about the GI50 [24] of the same molecule?
The GI50 was 17.5 µM.

What about the TGI [24] of the same molecule?
Its TGI is 34.6 µM.

What about the GI50 [25] of the same molecule?
The GI50 was 15 µM.

What about the TGI [25] of the same molecule?
Its TGI is 28.2 µM.

And the GI50 [26]?
The GI50 was 17.5 µM.

What about the TGI [26] of the same molecule?
Its TGI is 33 µM.

And the GI50 [27]?
Its GI50 is 13.8 µM.

And the TGI [27]?
Its TGI is 28.4 µM.

What about the GI50 [28] of the same molecule?
Its GI50 is 0.677 µM.

And the TGI [28]?
Its TGI is 3.49 µM.

And the GI50 [29]?
The GI50 was 14.6 µM.

And the TGI [29]?
Its TGI is 34.7 µM.

What about the GI50 [30] of the same molecule?
The GI50 was 10.1 µM.

And the TGI [30]?
Its TGI is 36.3 µM.

And the GI50 [31]?
The GI50 was 12.4 µM.

What about the TGI [31] of the same molecule?
Its TGI is 26.7 µM.

What about the GI50 [32] of the same molecule?
Its GI50 is 17.7 µM.

What about the TGI [32] of the same molecule?
The TGI was 32.6 µM.

And the GI50 [33]?
Its GI50 is 14.8 µM.

And the TGI [33]?
The TGI was 29 µM.

What about the GI50 [34] of the same molecule?
The GI50 was 11.1 µM.

What about the TGI [34] of the same molecule?
Its TGI is 23.4 µM.

What about the GI50 [35] of the same molecule?
Its GI50 is 0.319 µM.

And the TGI [35]?
Its TGI is 1.89 µM.

What about the GI50 [36] of the same molecule?
The GI50 was 7.38 µM.

And the TGI [36]?
The TGI was 21.6 µM.

What about the GI50 [37] of the same molecule?
Its GI50 is 17.7 µM.

And the TGI [37]?
The TGI was 40.9 µM.

What about the GI50 [38] of the same molecule?
Its GI50 is 11.8 µM.

And the TGI [38]?
Its TGI is 26.3 µM.

And the GI50 [39]?
Its GI50 is 2.54 µM.

What about the TGI [39] of the same molecule?
The TGI was 13.6 µM.

And the GI50 [40]?
The GI50 was 0.906 µM.

What about the TGI [40] of the same molecule?
Its TGI is 13.2 µM.

What about the GI50 [41] of the same molecule?
Its GI50 is 13.7 µM.

And the TGI [41]?
The TGI was 29.1 µM.

And the GI50 [42]?
Its GI50 is 17.6 µM.

What about the TGI [42] of the same molecule?
The TGI was 35.1 µM.

What about the GI50 [43] of the same molecule?
Its GI50 is 0.531 µM.

What about the TGI [43] of the same molecule?
The TGI was 2.9 µM.

What about the GI50 [44] of the same molecule?
Its GI50 is 13.1 µM.

What about the TGI [44] of the same molecule?
The TGI was 26.1 µM.

What about the GI50 [45] of the same molecule?
Its GI50 is 3.32 µM.

And the TGI [45]?
Its TGI is 19.5 µM.

What about the GI50 [46] of the same molecule?
Its GI50 is 2.3 µM.

What about the TGI [46] of the same molecule?
The TGI was 15 µM.

What about the GI50 [47] of the same molecule?
Its GI50 is 6.76 µM.

What about the TGI [47] of the same molecule?
The TGI was 29.6 µM.

And the GI50 [48]?
The GI50 was 7.16 µM.

And the TGI [48]?
Its TGI is 21.1 µM.

What about the GI50 [49] of the same molecule?
The GI50 was 17 µM.

And the TGI [49]?
The TGI was 31.3 µM.

And the GI50 [50]?
The GI50 was 14.5 µM.

What about the TGI [50] of the same molecule?
The TGI was 29.9 µM.

What about the GI50 [51] of the same molecule?
The GI50 was 3.74 µM.

What about the TGI [51] of the same molecule?
The TGI was 12.9 µM.

What about the GI50 [52] of the same molecule?
The GI50 was 6.11 µM.

What about the TGI [52] of the same molecule?
Its TGI is 20.7 µM.

And the GI50 [53]?
The GI50 was 14.3 µM.

What about the TGI [53] of the same molecule?
The TGI was 27.5 µM.

And the GI50 [54]?
Its GI50 is 17.7 µM.

What about the TGI [54] of the same molecule?
The TGI was 33.8 µM.

And the GI50 [55]?
The GI50 was 14.1 µM.

What about the TGI [55] of the same molecule?
Its TGI is 29.3 µM.

And the GI50 [56]?
The GI50 was 19.3 µM.

What about the TGI [56] of the same molecule?
Its TGI is 36 µM.

And the GI50 [57]?
The GI50 was 14.2 µM.

And the TGI [57]?
Its TGI is 28.5 µM.
